The values that follow come from patent US20020082254A1, “Compounds for treating disorders where a decreased level of plasma FFA is desired” (priority 2000, published 2002).

In test [1] the target is T1, Hormone-sensitive lipase (HSL) (Homo sapiens, UniProt Q05469).
T1 sequence (Q05469 1-1076): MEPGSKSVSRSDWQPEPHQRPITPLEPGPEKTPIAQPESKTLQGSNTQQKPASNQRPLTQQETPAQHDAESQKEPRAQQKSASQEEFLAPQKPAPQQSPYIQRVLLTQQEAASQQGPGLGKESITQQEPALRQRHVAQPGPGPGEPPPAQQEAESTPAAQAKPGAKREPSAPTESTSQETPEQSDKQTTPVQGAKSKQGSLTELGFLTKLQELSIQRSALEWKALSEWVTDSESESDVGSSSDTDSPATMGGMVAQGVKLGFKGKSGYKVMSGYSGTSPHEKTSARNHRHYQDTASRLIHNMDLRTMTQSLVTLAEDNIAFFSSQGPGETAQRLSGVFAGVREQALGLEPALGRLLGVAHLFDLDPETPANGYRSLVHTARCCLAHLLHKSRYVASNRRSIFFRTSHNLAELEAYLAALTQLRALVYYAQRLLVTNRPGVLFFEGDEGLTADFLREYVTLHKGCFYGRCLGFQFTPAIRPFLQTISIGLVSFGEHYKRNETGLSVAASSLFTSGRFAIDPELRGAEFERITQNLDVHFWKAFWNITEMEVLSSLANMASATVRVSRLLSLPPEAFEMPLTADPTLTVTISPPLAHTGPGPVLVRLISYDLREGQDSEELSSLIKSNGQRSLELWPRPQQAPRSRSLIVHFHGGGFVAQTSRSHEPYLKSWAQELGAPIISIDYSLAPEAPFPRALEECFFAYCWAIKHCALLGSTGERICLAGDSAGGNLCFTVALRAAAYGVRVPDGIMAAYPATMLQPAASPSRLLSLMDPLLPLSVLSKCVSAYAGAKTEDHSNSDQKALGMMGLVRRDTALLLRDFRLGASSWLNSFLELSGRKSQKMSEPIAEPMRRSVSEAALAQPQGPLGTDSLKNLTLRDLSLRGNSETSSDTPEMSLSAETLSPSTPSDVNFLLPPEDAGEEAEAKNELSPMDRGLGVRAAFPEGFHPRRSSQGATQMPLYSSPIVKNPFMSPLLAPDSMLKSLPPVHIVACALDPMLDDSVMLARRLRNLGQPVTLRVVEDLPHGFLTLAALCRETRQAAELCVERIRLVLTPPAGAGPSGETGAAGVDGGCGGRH
The test is described as follows: Hormone-sensitive lipase (HSL) inhibition assay, 3H-labeled triolein or MOME substrate. Format: biochemical. An excerpt:
Hormone-sensitive lipase (HSL) [classified as a triacylglycerol lipase, EC 3.1.1.3, in accordance with the Recommendations of the Nomenclature Committee of the International Union of Biochemistry and Molecular Biology (available on the World Wide Web at the following address: http://www.chem.qmw.ac.uk/iubmb/enzyme/)]
Materials. The Hormone-sensitive lipase employed was provided by Dr. Cecilia Holm of Lund University, Sweden, or produced and purified by Novo Nordisk (NN) using the reagents and protocols employed by Dr. Holm. The substrates used are: ^3H-labeled triolein (TO) from Amersham, Buckinghamshire, U.K. cat No. TRA191; 5-20 Ci/mmol dissolved in toluene, triolein (Sigma, Cat. No. T-1740) and mono-oleoyl-2-O-mono-oleylglycerol (MOME) synthesized at (NN) using the protocols provided by Dr. Cecilia Holm, Lund University, Sweden. Phosphatidyl choline (PC) and phosphatidyl inositol (PI) are from Sigma (St Luis Mo., cat. Nos. P-3556 and P-5954, respectively). All other reagents are of commercial grade and obtained from various commercial sources.
Methods. The preparation of the substrates is as follows:
TO: 30 μl PC:PI (20 mg/ml solution of PC:PI 3:1 prepared in chloroform)+128 μl cold TO+15 μl ^3H-TO
MOME: 30 μl PC:PI+100 μl cold MOME+200 μl ^3H-MOME
They are then evaporated under a gentle stream of N2 followed by 20-30 minutes in a Speedvac™ apparatus to ensure the absence of residual solvent.
The samples are prepared as follows:
Samples/controls: 78 μl PED-BSA+20 μl inhibitor (various concentrations)+2 μl HSL (undiluted 0.12 mg/ml). If no inhibitors are being tested, the reaction contains 98 μl PED-BSA+2 μl HSL.
The samples are put on ice and then sonicated as follows:
With TO as substrate, add 2 ml potassium buffer (0.1M potassium phosphate, pH 7) and then sonicate twice for 1 minute, with a 1-minute interval between cycles. Add an additional 1 ml potassium buffer and sonicate 4 times for 30 seconds, with a 30 second interval in between cycles. To finish, add 1 ml BSA 20%-in potassium buffer, mix by inversion and store on ice until use.
With MOME as substrate: add 2 ml potassium buffer and then sonicate twice for 1 minute, with a 1 minute interval between cycles. Add 1.6 ml potassium buffer and sonicate 4 times for 30 seconds, with a 30-second interval between cycles. To finish, add 0.4 ml BSA 20%-buffer, mix by inversion and store on ice until use.
The enzyme reaction is run at 37° C. The substrate mix is added to the various reactions at 10 second intervals, incubated for 30 minutes in a water bath and then stopped with 3.25 ml of a solution containing CH3OH:CHCl3:heptane (10:9:7). After the addition of 1.05 ml potassium buffer pH10.5, the sample is vortexed thoroughly and centrifuged for 20 min at 2000 r.p.m. One ml of the upper phase is added to 10 ml scintillation fluid, and mixed thoroughly by shaking.
The samples are then counted, 5 min per vial, in a scintillation counter.

Test [2] concerns the target T2, Lipoprotein lipase (LPL) (Bos taurus, UniProt P11151).
T2 construct: Dr. Gunilla Olivecrona, Umea University (gift)
T2 sequence (P11151 29-478): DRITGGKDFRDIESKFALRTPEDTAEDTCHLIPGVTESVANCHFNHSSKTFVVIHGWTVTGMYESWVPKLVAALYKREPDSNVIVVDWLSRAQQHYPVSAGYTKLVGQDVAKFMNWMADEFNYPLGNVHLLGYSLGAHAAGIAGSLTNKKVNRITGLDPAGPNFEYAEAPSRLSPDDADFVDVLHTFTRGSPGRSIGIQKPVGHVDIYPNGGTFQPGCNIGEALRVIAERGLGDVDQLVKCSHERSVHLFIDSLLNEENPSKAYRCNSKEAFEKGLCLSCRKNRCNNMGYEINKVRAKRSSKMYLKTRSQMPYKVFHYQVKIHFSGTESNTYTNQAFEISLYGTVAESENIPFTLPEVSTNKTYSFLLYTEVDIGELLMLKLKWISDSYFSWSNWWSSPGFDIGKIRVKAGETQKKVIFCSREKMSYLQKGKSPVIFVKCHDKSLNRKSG
The test is described as follows: Lipoprotein lipase (LPL) inhibition assay, 3H-triolein/intralipid substrate. Type of test: biochemical. The conditions noted are these: read-out: LPL inhibition (% inh. at 50 μM). The source says:
Lipoprotein Lipase (LPL) [Classified as EC 3.1.1.34 in accordance with the Recommendations of the Nomenclature Committee of the International Union of Biochemistry and Molecular Biology (available on the World Wide Web at the following address: http://www.chem.qmw.ac.uk/iubmb/enzyme/)]
Materials. The lipoprotein lipase employed was obtained from Dr. Gunilla Olivecrona of Umea University, Sweden. ^3H-triolein (TO) from Amersham, Buckinghamshire, U.K., cat No. TRA191; 5-20 Ci/mmol dissolved in toluene. Intralipid is from Kabi-Fresenius). Apo CII was obtained from PMSF-treated plasma from overnight fasted rats. All other reagents are of commercial grade and obtained from various commercial sources.
Methods. The preparation of the substrate is as follows:
25 μl of ^3H-Triolein evaporated under a gentle stream of N2 in a 27° C. room in 4 ml chromacol glass followed by the addition of 1 ml 10% intralipid. This is mixed and sonicated on ice for 5 minutes (50% pulse mode). This can be kept for 1 week at 4° C.
100 μl assay medium (0.3M Tris-Cl, 0.2M NaCl, 0.2 mg heparin/ml and 120 mg BSA/ml (fraction V, Sigma no. 3401, pH 8.5))
All mixed in a 13×100 mm glass tube and incubated for at least 5 minutes.
2. Add 5 μl LPL (of a solution containing 500 mU/mg)
Mix and incubate for 30 minutes at 25° C.
3. The reaction is stopped with 3.25 ml of a solution containing Methanol:chloroform:heptan 10:9:7. Add 1.05 ml buffer (100 mM Boric acid, 100 mM potassium carbonate pH 10.5) and mix 10 seconds per vial.
5. Take 1 ml of the upper phase+10 ml scintillation fluid and mix
6. Scintillation count for 5 minutes per vial.

Setting [3] is: read-out: HSL inhibition (IC50).

Structures can show the parent of a compound that is named as a salt. Where two headings read alike, the source gives them in different places.

Take `CN(C(=O)Oc1ccc(Cl)cc1)N1CCc2ccccc2C1` [Example 21, (3,4-Dihydro-1H-isoquinolin-2-yl)-methyl-carbamic Acid 4-chloro-phenyl Ester]: in test [1] (setting [3]), the IC50 (commonly the concentration that gives 50% inhibition) is more than 10000 nM. Further, the inhibition (as a rule, how much of the control response was suppressed) at 50 µM in test [2] is 5%.
The corresponding values for `O=C(NN1CCc2ccccc2C1)Oc1ccccc1F` [Example 15, (3,4-Dihydro-1H-isoquinolin-2-yl)-carbamic Acid 2-fluoro-phenyl Ester] are 1500 nM and 0%.
For `O=C(NN1CCc2ccccc2C1)Oc1ccc(-c2ccccc2)cc1` [Example 36], the IC50 in test [1] (setting [3]) is more than 10000 nM.
For `O=C(NN1CCc2ccccc2C1)Oc1ccc(C(F)(F)F)cc1` [Example 13, (3,4-Dihydro-1H-isoquinolin-2-yl)-carbamic Acid 4-trifluoromethyl-phenyl Ester], the IC50 in test [1] (setting [3]) worked out at 45 nM. In addition, the inhibition at 50 µM in test [2] amounted to 3%.
For `CCC(C)c1ccc(OC(=O)NN2CCc3ccccc3C2)cc1` (centres unmarked) [Example 33] the same measures were 170 nM and 2%.
As to `CC(=O)c1ccc(OC(=O)NN2CCc3ccccc3C2)cc1` [Example 45], in test [1] (setting [3]), the IC50 is more than 10000 nM.
As to `Nc1ccc(OC(=O)NN2CCc3ccccc3C2)cc1` [Example 18, (3,4-Dihydro-1H-isoquinolin-2-yl)-carbamic Acid 4-amino-phenyl Ester Hydrochloride], the IC50 in test [1] (setting [3]) was 7700 nM. Besides, the inhibition at 50 µM in test [2] stood at 0%.
For `CC(C)(C)c1ccc(OC(=O)NN2CCc3ccccc3C2)cc1` [Example 32], the IC50 in test [1] (setting [3]) was more than 10000 nM. Moreover, the inhibition at 50 µM in test [2] amounted to 0%.
As to `O=C(NN1CCc2ccccc2C1)Oc1ccc(OC(F)(F)F)cc1` [Example 40], the IC50 in test [1] (setting [3]) is 3400 nM. Moreover, the inhibition at 50 µM in test [2] was 1%.
As for `CCC(=O)c1ccc(OC(=O)NN2CCc3ccccc3C2)cc1` [Example 24], the IC50 in test [1] (setting [3]) was more than 10000 nM.
The same measure, in the same setting: the value for `Cc1ccc(C(=O)c2ccc(OC(=O)NN3CCc4ccccc4C3)cc2)cc1` [Example 26] was more than 10000 nM.
`O=C(NN1CCc2ccccc2C1)Oc1ccc(Br)cc1` [Example 5, (3,4-Dihydro-1H-isoquinolin-2-yl)-carbamic acid 4-bromo-phenyl Ester]: in test [1] (setting [3]), the IC50 turned out to be 39 nM. The inhibition at 50 µM in test [2] came out at 7%.
For `O=C(NN1CCc2ccccc2C1)Oc1ccc(OCc2ccccc2)cc1` [Example 29] the same measures were 2600 nM and 0%.
For `O=C(NN1CCc2ccccc2C1)Oc1ccccc1Br` [Example 14, (3,4-Dihydro-1H-isoquinolin-2-yl)-carbamic Acid 2-bromo-phenyl Ester] the same measures were 800 nM and 7%.
On to `O=C(NN1CCc2ccccc2C1)Oc1ccc(C(=O)c2ccccc2)cc1` [Example 41], for which the IC50 in test [1] (setting [3]) is more than 10000 nM.
For `CCCOc1ccc(OC(=O)NN2CCc3ccccc3C2)cc1` [Example 39], in test [1] (setting [3]), the IC50 was 2500 nM. For the same compound, in test [2], the inhibition at 50 µM is 2%.
For `O=C(NN1CCc2ccccc2C1)Oc1ccc(C2CCCCC2)cc1` [Example 43] the same measures were more than 10000 nM and 6%.
Regarding `Cc1ccc(OC(=O)NN2CCc3ccccc3C2)cc1` [Example 8, (3,4-Dihydro-1H-isoquinolin-2-yl)-carbamic Acid p-tolyl Ester], in test [1] (setting [3]), the IC50 is 30 nM. Further, in test [2], the inhibition at 50 µM amounted to 1%.
In the case of `O=C(NN1CCc2ccccc2C1)Oc1ccc(Cl)c(C(F)(F)F)c1` [Example 47], the IC50 in test [1] (setting [3]) was more than 10000 nM.
In test [1], `O=C(NN1CCCCC1)Oc1ccc(Cl)cc1` [Example 48, Piperidin-1-yl-carbamic Acid 4-chloro-phenyl Ester] registered an IC50 of 50 nM.
On to `CC(=O)Nc1ccc(OC(=O)NN2CCc3ccccc3C2)cc1` [Example 25], for which the IC50 in test [1] (setting [3]) was more than 10000 nM.
Regarding `S=C(NN1CCc2ccccc2C1)Sc1ccccc1` [Example 50, (3,4-Dihydro-1H-isoquinolin-2-yl)-dithiocarbamic Acid Phenyl Ester], the IC50 in test [1] (setting [3]) is more than 10000 nM.
On the same count and under the same terms, the same measure for `O=C(NN1CCc2ccccc2C1)Oc1ccc(C(=O)CCCCl)cc1` [Example 44]: more than 10000 nM; for `CN(C)CCc1ccc(OC(=O)NN2CCc3ccccc3C2)cc1` [Example 34]: more than 10000 nM.
Consider `O=C(NN1CCOCC1)Oc1ccc(Cl)cc1` [Example 49, Morpholin-4-yl-carbamic Acid 4-chloro-phenyl Ester], for which it took 100 nM to reach half-maximal inhibition in test [1] (IC50).
